Values of other authors, collected in patent publication US8073633B2 (The Invention Science Fund I, LLC, priority 2008, dated 2011).

Experiments:
[1] = coadministered itraconazole relative to placebo
[2] = given with grapefruit juice as compared to water
[3] = in vivo

| Structure (SMILES) | change of area under the serum concentration-time curve [AUC (0-infinity)] [1] | change of peak serum concentration (Cmax) [1] | percentage change in Cmax values [2] | innate oral bioavailability [3] | further results |
| --- | --- | --- | --- | --- | --- |
| COC(=O)C1=C(C)NC(C)=C(C(=O)OCC(C)C)C1c1ccccc1[N+](=O)[O-] (stereo not drawn) [nisoldipine] |  |  | 409% | very low |  |
| CCOC(=O)C1=C(COCCN)NC(C)=C(C(=O)OC)C1c1ccccc1Cl (stereo not drawn) [amlodipine] |  |  | 115% | very high |  |
| O=P1(N(CCCl)CCCl)NCCCO1 (stereo not drawn) [cyclophosphamide] |  |  |  |  | relative risk for ovarian failure (lupus nephritis patients homozygous or heterozygous for CYP2C19*2, pulse cyclophosphamide therapy): 0.10; probability of progressing to end stage renal disease (patients homozygous for CYP2B6*5 or CYP2C19*2 (P=0.0005)): higher probability; probability of achieving a complete renal response (patients homozygous for CYP2B6*5 or CYP2C19*2 (P=0.051)): lower probability |

Continued, in another order:

| change of area under the serum concentration-time curve [AUC (0-infinity)] [1] | change of peak serum concentration (Cmax) [1] | percentage change in Cmax values [2] | innate oral bioavailability [3] | Structure (SMILES) | further results |
| --- | --- | --- | --- | --- | --- |
| at least tenfold | at least tenfold |  |  | CCC(C)(C)C(=O)O[C@H]1C[C@@H](C)C=C2C=C[C@H](C)[C@H](CC[C@@H](O)C[C@@H](O)CC(=O)O)[C@H]21 [simvastatin acid] |  |
| slightly increased | slightly increased |  |  | CC[C@H](C)C(=O)O[C@H]1C[C@H](O)C=C2C=C[C@H](C)[C@H](CC[C@@H](O)C[C@@H](O)CC(=O)O)[C@H]21 [pravastatin] | plasma half-life [1]: not altered |
